Tests used:
[1] = molecular target: T1, Recombinant STAT3 protein (STAT3(G127-I722)) (Homo sapiens, UniProt P40763); assay: STAT3 Fluorescence Polarization (FP) Assay; type: binding; conditions: STAT3(G127-I722) 25 nM, probe 5-FAM-GpYLPQTV-NH2 2 nM, 45-minute incubation
T1 construct: STAT3(G127-I722)
Method in brief: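 Serially diluted compounds (1% DMSO) were mixed with 2 nM fluorescent phosphotyrosine peptide and 25 nM STAT3 construct G127-I722, pH 7.4, incubated 45 min at room temperature. IC50 values from fitted polarization curves are reported as categories A (≤100 nM), B, C, D (>10 μM).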

[2] = molecular target: T2, Recombinant STAT6 protein (STAT6(W123-T658)) (Homo sapiens, UniProt P42226); assay: STAT6 Fluorescence Polarization (FP) Assay; type: binding; conditions: STAT6(W123-T658) 250 nM, probe 5-FAM-ApYKPFQDLI-NH2 2 nM, 45-minute incubation
T2 construct: STAT6(W123-T658)
T2 sequence (P42226 123-658): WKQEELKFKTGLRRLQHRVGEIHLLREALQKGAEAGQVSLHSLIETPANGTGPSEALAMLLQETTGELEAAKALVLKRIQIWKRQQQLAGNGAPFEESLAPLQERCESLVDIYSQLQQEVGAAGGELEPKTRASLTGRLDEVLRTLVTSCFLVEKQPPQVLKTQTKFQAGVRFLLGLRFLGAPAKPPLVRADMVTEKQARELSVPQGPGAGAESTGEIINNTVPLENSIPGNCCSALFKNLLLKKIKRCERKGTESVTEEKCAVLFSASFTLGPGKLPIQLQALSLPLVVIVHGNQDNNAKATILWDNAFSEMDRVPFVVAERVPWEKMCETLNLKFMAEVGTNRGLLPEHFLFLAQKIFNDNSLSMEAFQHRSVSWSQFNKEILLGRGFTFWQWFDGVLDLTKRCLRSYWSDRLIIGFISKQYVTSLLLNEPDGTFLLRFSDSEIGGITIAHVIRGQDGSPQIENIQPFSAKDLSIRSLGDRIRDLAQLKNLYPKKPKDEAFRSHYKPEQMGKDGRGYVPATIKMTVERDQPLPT
Method in brief: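 Competitive displacement of a fluorescent phosphotyrosine peptide (2 nM) from recombinant STAT6 W123-T658 (250 nM), 45 min at room temperature in 10 mM HEPES pH 7.4, 50 mM NaCl, 2 mM DTT. mP fitted against log compound for IC50, grouped A (≤300 nM) to D (>30 μM).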

T1 sequence (P40763 127-722, species assumed): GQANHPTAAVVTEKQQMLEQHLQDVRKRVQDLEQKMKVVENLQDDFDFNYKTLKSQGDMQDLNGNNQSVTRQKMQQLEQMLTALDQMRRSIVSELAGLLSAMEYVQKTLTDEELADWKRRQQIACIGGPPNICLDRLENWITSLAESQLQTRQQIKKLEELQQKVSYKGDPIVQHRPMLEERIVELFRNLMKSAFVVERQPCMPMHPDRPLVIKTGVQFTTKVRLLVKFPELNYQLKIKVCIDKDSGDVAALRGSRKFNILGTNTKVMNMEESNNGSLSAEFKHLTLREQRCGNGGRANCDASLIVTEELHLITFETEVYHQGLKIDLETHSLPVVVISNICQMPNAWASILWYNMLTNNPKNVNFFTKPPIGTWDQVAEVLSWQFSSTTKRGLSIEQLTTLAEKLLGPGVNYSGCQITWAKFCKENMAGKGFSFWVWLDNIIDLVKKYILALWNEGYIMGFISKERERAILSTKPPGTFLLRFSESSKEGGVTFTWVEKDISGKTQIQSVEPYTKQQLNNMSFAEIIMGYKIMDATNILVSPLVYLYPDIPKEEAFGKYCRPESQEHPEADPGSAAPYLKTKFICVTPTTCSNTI

Structure (SMILES) | IC50 [1] | IC50 [2]
O=C(N[C@H]1C[C@H]2C[C@H]2C[C@H]2CC[C@@H](C(=O)N3CC(c4c[nH]cn4)C3)N2C1=O)c1cc2cc(C(F)(F)P(=O)(O)O)ccc2s1 [Compound 54, ((2-(((3S,6S,7aR,8aS,9aR)-3-(3-(1H-imidazol-4-yl)azetidine-1-carbonyl)-5-oxodecahydro-1H-cyclopropa[d]pyrrolo[1,2-a]azocin-6-yl)carbamoyl)benzo[b]thiophen-5-yl)difluoromethyl)phosphonic acid] | < 100 nM | 0.3 to 3 µM
CC(C(N)=O)c1cc(-c2ccccc2)ccc1NC(=O)[C@@H]1CC[C@@H]2C[C@H]3C[C@H]3C[C@H](NC(=O)c3cc4cc(C(F)(F)P(=O)(O)O)ccc4s3)C(=O)N21 (stereo partly drawn) [Compound 101] | 100 to 1000 nM | 0.3 to 3 µM
N#Cc1ccc(C2CN(C(=O)[C@@H]3CC[C@@H]4C[C@@H]5C[C@@H]5C[C@H](NC(=O)c5cc6cc(C(F)(F)P(=O)(O)O)ccc6s5)C(=O)N43)C2)cc1 [Compound 74, ((2-(((3S,6S,7aR,8aS,9aR)-3-(3-(4-cyanophenyl)azetidine-1-carbonyl)-5-oxodecahydro-1H-cyclopropa[d]pyrrolo[1,2-a]azocin-6-yl)carbamoyl)benzo[b]thiophen-5-yl)difluoromethyl)phosphonic acid] | < 100 nM | 0.3 to 3 µM
COC1(c2nccn2C)CN(C(=O)[C@@H]2CC[C@@H]3C[C@@H]4[C@H](C[C@H](NC(=O)c5cc6cc(C(F)(F)P(=O)(O)O)ccc6s5)C(=O)N32)C4(F)F)C1 [Compound 29, ((2-(((3S,6S,7aS,8aR,9aR)-8,8-difluoro-3-(3-methoxy-3-(1-methyl-1H-imidazol-2-yl)azetidine-1-carbonyl)-5-oxodecahydro-1H-cyclopropa[d]pyrrolo[1,2-a]azocin-6-yl)carbamoyl)benzo[b]thiophen-5-yl)difluoromethyl)phosphonic acid] | 100 to 1000 nM | 3 to 30 µM
O=C(N[C@H]1C[C@@H]2C[C@@H]2C[C@H]2CC[C@@H](C(=O)N3CC(C4CCOCC4)C3)N2C1=O)c1cc2cc(C(F)(F)P(=O)(O)O)ccc2s1 [Compound 96, (difluoro(2-(((3S,6S,7aS,8aR,9aR)-5-ox0-3-(3-(tetrahydro-2H-pyran-4-yl)azetidine-1-carbonyl)decahydro-1H-cyclopropa[d]pyrrolo[1,2-a]azocin-6-yl)carbamoyl)benzo[b]thiophen-5-yl)methyl)phosphonic acid] | 100 to 1000 nM | 3 to 30 µM
O=C(N[C@H]1C[C@@H]2C[C@@H]2C[C@H]2CC[C@@H](C(=O)NC3CN([C@H]4CCOC4)C3)N2C1=O)c1cc2cc(C(F)(F)P(=O)(O)O)ccc2s1 [Compound 57, (difluoro(2-(((3S,6S,7aS,8aR,9aR)-5-oxo-3-((1-((S)-tetrahydrofuran-3-yl)azetidin-3-yl)carbamoyl)decahydro-1H-cyclopropa[d]pyrrolo[1,2-a]azocin-6-yl)carbamoyl)benzo[b]thiophen-5-yl)methyl)phosphonic acid] | 100 to 1000 nM | 3 to 30 µM
Cc1nnc(C2CN(C(=O)[C@@H]3CC[C@@H]4C[C@@H]5C[C@@H]5C[C@H](NC(=O)c5cc6cc(C(F)(F)P(=O)(O)O)ccc6s5)C(=O)N43)C2)[nH]1 [Compound 81, (difluoro(2-(((3S,6S,7aR,8aS,9aR)-3-(3-(5-methyl-4H-1,2,4-triazol-3-yl)azetidine-1-carbonyl)-5-oxodecahydro-1H-cyclopropa[d]pyrrolo[1,2-a]azocin-6-yl)carbamoyl)benzo[b]thiophen-5-yl)methyl)phosphonic acid] | < 100 nM | 0.3 to 3 µM

The next lines start with the values.

IC50 [1] | IC50 [2] | Structure (SMILES)
< 100 nM | 3 to 30 µM | O=C(N[C@H]1C[C@H]2C[C@H]2C[C@H]2CC[C@@H](C(=O)N3CC(c4ccon4)C3)N2C1=O)c1cc2cc([C@@H](F)P(=O)(O)O)ccc2s1 (single isomer, unassigned) [Example 344]
100 to 1000 nM | 3 to 30 µM | COC1(c2nccn2C)CN(C(=O)[C@@H]2CC[C@@H]3C[C@@]4(C)C[C@H]4C[C@H](NC(=O)c4cc5cc(C(F)(F)P(=O)(O)O)ccc5s4)C(=O)N32)C1 [Example 237, (difluoro(2-(((3S,6S,7aS,8aR,9aR)-3-(3-methoxy-3-(1-methyl-1H-imidazol-2-yl)azetidine-1-carbonyl)-8a-methyl-5-oxodecahydro-1H-cyclopropa[d]pyrrolo[1,2-a]azocin-6-yl)carbamoyl)benzo[b]thiophen-5-yl)methyl)phosphonic acid]
100 to 1000 nM | 0.3 to 3 µM | COC[C@@H]1CCN1c1ccncc1C1CN(C(=O)[C@@H]2CC[C@@H]3C[C@H]4C[C@H]4C[C@H](NC(=O)c4cc5cc([C@H](F)P(=O)(O)O)ccc5s4)C(=O)N32)C1 (single isomer, unassigned) [Example 411]
100 to 1000 nM | 3 to 30 µM | O=C(N[C@H]1C[C@@H]2C[C@@H]2C[C@H]2CC[C@@H](C(=O)N[C@H]3CN(c4ccccn4)C[C@@H]3F)N2C1=O)c1cc2cc(CP(=O)(O)O)ccc2s1 [Example 246, ((2-(((3S,6S,7aS,8aR,9aR)-3-(((3S,4S)-4-fluoro-1-(pyridin-2-yl)pyrrolidin-3-yl)carbamoyl)-5-oxodecahydro-1H-cyclopropa[d]pyrrolo[1,2-a]azocin-6-yl)carbamoyl)benzo[b]thiophen-5-yl)methyl)phosphonic acid]
< 100 nM | 0.3 to 3 µM | O=C(N[C@H]1C[C@@H]2C[C@@H]2C[C@H]2CC[C@@H](C(=O)N3CCN(C(=O)c4cn[nH]c4)CC3)N2C1=O)c1cc2cc(C(F)(F)P(=O)(O)O)ccc2s1 [Compound 104, ((2-(((3S,6S,7aS,8aR,9aR)-3-(4-(1H-pyrazole-4-carbonyl)piperazine-1-carbonyl)-5-oxodecahydro-1H-cyclopropa[d]pyrrolo[1,2-a]azocin-6-yl)carbamoyl)benzo[b]thiophen-5-yl)difluoromethyl)phosphonic acid]
< 100 nM | 3 to 30 µM | CC12CC1C[C@H](NC(=O)c1cc3cc(C(F)(F)P(=O)(O)O)ccc3s1)C(=O)N1[C@H](CC[C@H]1C(=O)N1CC(c3cccnc3)C1)C2 (stereo in doubt) [Example 231, (difluoro(2-(((3S,6S,7aR,8aS,9aR)-8a-methyl-5-oxo-3-(3-(pyridin-3-yl)azetidine-1-carbonyl)decahydro-1H-cyclopropa[d]pyrrolo[1,2-a]azocin-6-yl)carbamoyl)benzo[b]thiophen-5-yl)methyl)phosphonic acid]
1000 to 10000 nM | > 30 µM | CC(=O)N1CCC2C1CN2C(=O)[C@@H]1CC[C@@H]2C[C@H]3C[C@H]3C[C@H](NC(=O)c3cc4cc(CP(=O)(O)O)ccc4s3)C(=O)N21 (stereo partly drawn) [Example 271, ((2-(((3S,6S,7aS,8aR,9aR)-3-(2-acetyl-2,6-diazabicyclo[3.2.0]heptane-6-carbonyl)-5-oxodecahydro-1H-cyclopropa[d]pyrrolo[1,2-a]azocin-6-yl)carbamoyl)benzo[b]thiophen-5-yl)methyl)phosphonic acid]
100 to 1000 nM | 3 to 30 µM | O=C(N[C@H]1C[C@@H]2C[C@@H]2C[C@H]2CC[C@@H](C(=O)N3CCC4C3CN4c3cccnc3)N2C1=O)c1cc2cc(CP(=O)(O)O)ccc2s1 (stereo partly drawn) [Example 261, ((2-(((3S,6S,7aS,8aR,9aR)-5-oxo-3-(6-(pyridin-3-yl)-2,6-diazabicyclo[3.2.0]heptane-2-carbonyl)decahydro-1H-cyclopropa[d]pyrrolo[1,2-a]azocin-6-yl)carbamoyl)benzo[b]thiophen-5-yl)methyl)phosphonic acid]
